ChEMBL document CHEMBL4406882, “The plant-derived chalcone Xanthoangelol targets the membrane of Gram-positive bacteria” (Bioorg Med Chem, 2019)
The source made the active and inactive calls. The rule behind the calls is not given here.

Tested on: Staphylococcus aureus
Assay: Induction of membrane integrity impairment in methicillin-resistant Staphylococcus aureus ATCC 700699 at 3.125 to 12.5 uM measured for 30 mins by DiOC2(3) probe based fluorescence assay
Format: functional, organism-based

N#CC(C#N)=NNc1cccc(Cl)c1
Activity: Active
